Where two headings read alike, the source gives them in different places.
Tests used:
Eg5 = Eg5 (Homo sapiens, UniProt P52732); assay: Inhibition of Eg5 ATPase activity; assay type: biochemical; details: read-out: Enzyme EC50
Protocol: All experiments were performed as previously described. Data were analyzed using GraphPad Prism 5 and Microsoft Excel to obtain EC50 values. […] Each inhibitory concentration was measured in triplicate, and averaged data points ± SD are shown.

Eg5 motor domain = target: T1, Eg5 motor domain (Homo sapiens, UniProt P52732); assay: SPR assay (Biacore T200); assay type: binding; details: SPR Biacore T200, 25°C
T1 sequence (P52732 18-359 limits assumed): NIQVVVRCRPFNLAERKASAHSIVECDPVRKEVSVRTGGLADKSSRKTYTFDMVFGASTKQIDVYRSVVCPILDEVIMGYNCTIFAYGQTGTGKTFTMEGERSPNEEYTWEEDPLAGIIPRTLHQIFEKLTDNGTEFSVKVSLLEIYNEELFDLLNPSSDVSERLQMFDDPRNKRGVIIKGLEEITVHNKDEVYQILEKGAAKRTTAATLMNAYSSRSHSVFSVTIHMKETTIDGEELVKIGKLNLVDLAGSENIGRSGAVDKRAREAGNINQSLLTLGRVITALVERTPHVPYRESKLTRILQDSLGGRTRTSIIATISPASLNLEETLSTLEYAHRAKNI
Protocol: Interactions of the Eg5 motor domain and compounds of interest were analyzed using the Biacore T200 system (GE Healthcare, Uppsala, Sweden) at 25°C. Eg5 motor protein obtained as previously described (51) was immobilized on a sensor chip (CM5) using an amine coupling kit (GE Healthcare, Buckinghamshire, UK). […] For binding studies, analytes were applied at corresponding concentrations in running buffer at a flow rate of 30 μL/minute with a contact time of 60 seconds and a dissociation time of 60 seconds. Chip platforms were washed with running buffer and 50% DMSO. Data were analyzed with Biacore evaluation software (T200 Version 1.0) by curve fitting using a steady state 1:1 binding model and a kinetic model.

CNE-2Z = assay: Antiproliferation assay (Alamar Blue), CNE-2Z; assay type: cell-based; details: Homo sapiens, CNE2Z, nasopharyngeal cancer, read-out: EC50 of YL001
Protocol: (§1) Cytotoxic activities of the compounds of interest were investigated with human cancer cell lines using the Alamar Blue assay. Cells (5 × 10^3 cells/well) were seeded into 96-well plates (Corning, 3603). Various sample concentrations (compounds of interest) were added to each well in duplicate, and incubated at 37°C with 5% CO2 for two days such that cells were in the exponential growth phase at the time of drug addition. Ten microliters of the Alamar Blue Solution (Invitrogen, Alamar Blue) were added to each well and incubated at 37°C for up to 2 hours in a humidified, 5% CO2 atmosphere. After incubation, florescence was measured using a microplate reader (Tecan) at an excitation wavelength of 540 nm and emission of 590 nm. Each inhibitory concentration was measured in triplicate, and averaged data points ± SD are shown. Statistical analysis was carried out with GraphPad Prism 5 and the fifty-percent effective concentration is expressed as EC50.

A549 = assay: Antiproliferation assay (Alamar Blue), A549; assay type: cell-based; details: Homo sapiens; A549, lung cancer; read-out: EC50 of YL001
Protocol: as §1

U87 = assay: Antiproliferation assay (Alamar Blue), U87; assay type: cell-based; details: Homo sapiens, U-87 MG; U87, brain cancer; read-out: EC50 of YL001
Protocol: as §1

786-O = assay: Antiproliferation assay (Alamar Blue), 786-O; assay type: cell-based; details: Homo sapiens, 786-0, renal cancer, read-out: EC50 of YL001
Protocol: as §1

AGS = assay: Antiproliferation assay (Alamar Blue), AGS; assay type: cell-based; details: Homo sapiens, stomach cancer, read-out: EC50 of YL001
Protocol: as §1

HT1080 = assay: Antiproliferation assay (Alamar Blue), HT1080; assay type: cell-based, Human; details: read-out: EC50 of YL001
Protocol: as §1

HCT 116 = assay: Cell cycle analysis by flow cytometry; assay type: cell-based, Human; details: HCT 116, 8 hours treatment with 50 μM
[1] = tested on: panel of 468 typical, atypical and mutant human kinases; assay: Kinase profiling (KINOMEscan, DiscoverX); assay type: binding; details: 468 kinases, 1 μM
Protocol: Kinase profiling was conducted by the DiscoverX as KINOMEscan profiling service for testing the inhibition of YL001 of interest against 468 kinases. Selectivity score S(35) was defined as follows:
S(35) = (number of non-mutant kinases with% Control < 35)/(number of non-mutant kinases tested).

[2] = Nucleophilic addition assay; details: incubated with cysteine and lysine for 24 hours at 37°C
Protocol: 0.5 mmol YL001 was solved in a solution of THF/H2O (v:v = 1:1) and stirred with nucleophiles (0.5 mmol L-cysteine or L-lysine) at 37°C for 24 hours. Products were then validated by HRMS.

Sequence of Eg5 (P52732 whole entry): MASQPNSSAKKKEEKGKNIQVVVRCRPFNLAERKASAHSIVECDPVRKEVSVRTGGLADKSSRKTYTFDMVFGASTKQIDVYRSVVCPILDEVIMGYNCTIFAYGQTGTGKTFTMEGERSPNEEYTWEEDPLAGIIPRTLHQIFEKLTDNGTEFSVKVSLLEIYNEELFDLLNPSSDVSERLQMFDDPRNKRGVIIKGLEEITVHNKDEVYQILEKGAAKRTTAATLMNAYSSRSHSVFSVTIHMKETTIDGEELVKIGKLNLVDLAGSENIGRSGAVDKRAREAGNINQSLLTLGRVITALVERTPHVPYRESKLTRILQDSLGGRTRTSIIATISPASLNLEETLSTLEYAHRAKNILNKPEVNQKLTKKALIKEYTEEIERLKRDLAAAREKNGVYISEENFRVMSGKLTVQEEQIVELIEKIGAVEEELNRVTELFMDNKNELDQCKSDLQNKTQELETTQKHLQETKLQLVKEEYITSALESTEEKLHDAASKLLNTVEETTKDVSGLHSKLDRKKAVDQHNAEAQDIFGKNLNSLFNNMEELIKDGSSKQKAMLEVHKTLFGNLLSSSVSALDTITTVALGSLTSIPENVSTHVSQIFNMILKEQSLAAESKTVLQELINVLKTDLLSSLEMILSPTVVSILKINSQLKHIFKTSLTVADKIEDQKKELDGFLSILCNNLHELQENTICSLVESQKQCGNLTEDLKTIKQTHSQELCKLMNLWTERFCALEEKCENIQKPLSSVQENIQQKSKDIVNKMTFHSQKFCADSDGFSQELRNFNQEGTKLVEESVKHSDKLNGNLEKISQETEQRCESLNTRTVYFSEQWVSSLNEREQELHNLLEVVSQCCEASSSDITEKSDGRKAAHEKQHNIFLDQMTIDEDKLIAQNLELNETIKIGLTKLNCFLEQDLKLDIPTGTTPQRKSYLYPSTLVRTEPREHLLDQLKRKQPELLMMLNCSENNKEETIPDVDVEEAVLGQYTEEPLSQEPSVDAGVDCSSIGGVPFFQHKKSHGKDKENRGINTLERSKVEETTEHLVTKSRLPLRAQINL

Structure (SMILES): Cc1ccc(-n2nnnc2/C(=C/N(C)C)C(=O)c2cccc(C(F)(F)F)c2)cc1 [YL001, (Z)-3-(dimethylamino)-2-(1-(p-tolyl)-1H-tetrazol-5-yl)-1-(3-(trifluoromethyl)phenyl)prop-2-en-1-one]
- EC50 (Eg5): 1.18 µM
- Kd (Eg5 motor domain): 0.133 µM
- EC50 (CNE-2Z): 5.94 ± 0.02 µM
- EC50 (A549): 22.8 ± 0.72 µM
- EC50 (U87): 26.2 ± 0.12 µM
- EC50 (786-O): 14.7 ± 0.62 µM
- EC50 (AGS): 20.2 ± 0.01 µM
- EC50 (HT1080; HT1080, fibrosarcoma): 76.2 ± 0.77 µM
- EC50 (HT1080; Homo sapiens, HT-1080, HT1080, fibrosarcoma): > 70 µM
- percentage of cells with 4N DNA content (HCT 116): over 80%
- activity against kinase panel [1]: no activity
- reaction with nucleophiles (new products by HRMS) [2]: no new products were detected

Source: publication PMC5522084, “Eg5 inhibitor YL001 induces mitotic arrest and inhibits tumor proliferation” (Oncotarget, 2017)
